“Also recorded” adds a separate entry of the source.
Experiments:
[1] = system: PD-1 expression on T-cells; assay: FACS of PD-1 expression on T-cells activated with anti-CD3 (2C11) for 48 hours; format: cell-based, mouse; conditions: anti-CD3 (2C11) 48 hours; anti-CD3 increased MFI by 5 fold (FIG. 4)
Description: For anti-CD3 activation of T-cells, cells were stimulated with 5 μg/ml of anti-CD3 (2C11) in RPMI medium supplemented with 10% FCS, 2 mM glutamine, 50 uM 2-ME, 100 U/ml penicillin/streptomycin for 2-4 days using established methods.
(§1) The presence of cells was confirmed by using forward scatter height or side scatter height n the form of a dot and contor plots. […] Non-stained cells were used a control.
(§2) The chemical structures of each inhibitor are shown on bottom and right sides of figure.
as §2

[2] = system: PD-1 expression on T-cells; assay: FACS of PD-1 expression induced by mixed lymphocyte reaction (C57Bl/6 + ICR/CD1 spleen T-cells, 60 hours); format: cell-based, mouse; conditions: C57Bl/6 + ICR/CD1 co-culture, 60 hours (FIG. 5, 6)
Description: Cell flow cytometry with an acquisition of 10 000 events and data analysis using FlowJo).
C57BL/6J (B6) or outbred mouse CRI/CD1 T-cells were cultivated either alone or together at equal numbers (1×10^6/ml) for 60 hours in the presence or absence of the inhibitor followed by the harvesting of cells and FACs analysis for PD-1 using anti-PD-1-PE.

[3] = system: PD-1 expression on T-cells; assay: FACS of PD-1 expression on Con A activated T-cells; format: cell-based, mouse; conditions: Con A activated T-cells (FIG. 5f)
Description: Another mode of T-cell activation involves the stimulation by the lectin Concanavalin A (Con A) (e, f). ConA binds α-D-mannosyl and α-D-glucosyl residues (two hexoses differing only by the alcohol on carbon 2) in terminal position of ramified structures from B-Glycans (reach in α-mannose, or hybrid and bi-antennary glycanes complexes). Con A is known to induce cell agglutination/clustering and to stimulate mouse T-cell subsets giving rise to four functionally distinct T cell populations, including precursors to suppressor T-cell (Dwyer and Johnson 1981 Clin Exp Immunol 46 (2): 237-49). (e) contains the bright field images of Con A activated cells with cell clustering observed in the presence and absence of GSK-3 inhibitor TDZD-8.

[4] = system: PD-1 expression on T-cells; assay: Oral administration in drinking water, PD-1 expression on ex vivo anti-CD3 activated spleen cells; design: species or system mouse; conditions: B6 mice
Description: . […] By 48 hours, all water was consumed. […] Non-stained cells were used a control.

[5] = Oral administration in drinking water, cell numbers and viability of spleen cells
Description: A stock solution 1 mg/ml was made in 1% DMSO. In one set, the 10 ug stock solution was diluted in 10 ml of water. […] By 48 hours, all water was consumed. Mice were then sacrificed, spleen extracted on 60 hours, cells were spun down at 1,800 for 3 min and ACK for removal of red blood cells (RBCs) treated for 2 min. Cells were then centrifuged at 1,800 rpm for 3 min and the absence of red blood cells was confirmed by the loss of red color in the cell pellet. […] An additional stimulant of 2 ug/ml ConA was also added at 48 hours of culture.
Ex vivo extracted cells were then cultured in 48 well tissue culture plates for 48 hours in the presence of anti-CD3 on plates (1 ug/ml).

[6] = system: PD-1 expression on OT-1 T-cells; assay: FACS of PD-1 surface expression on OT-1 T-cells stimulated in vitro by OVA peptide presented by EL-4 cells; format: cell-based, mouse; conditions: OT-1 T-cells stimulated in vitro by OVA peptide presented by EL-4 cells (FIG. 1, 2, 3, 11)
Description: (§3) Non-stained cells were used a control.
(§4) Cells were then stained for FACs with APC conjugated anti-PD-1 (CD279) (a, b) or subjected to qPCR (c, d) as described in the Materials and Methods. Reverse transcription was performed using the RNA polymerase chain reaction (PCR). PCRs were amplified for 40 cycles in a sequence detection system. mRNA expression was normalized against GAPDH (Glyceraldehyde 3-phosphate dehydrogenase) expression using the standard curve method.
T-cells were incubated in the presence or absence of anti-PD-1 and then subjected to FACs or qPCR as described in the Materials and Methods.

[7] = system: Tbet (Tbx21) transcription; assay: qPCR of Tbet transcription in OT-1 T-cells stimulated in vitro by OVA peptide/EL4; format: cell-based, mouse; conditions: OT-1 T-cells stimulated by OVA peptide in vitro (FIG. 1d)
Description: (§5) Single-strand cDNA was synthesized with an RT-PCR kit (Qiagen, Hilden, Germany) according to the manufacturer's instructions. Reverse transcription was performed using the RNA polymerase chain reaction (PCR) core kit (Applied Biosystems). Relative quantitative real-time PCR used SYBR green technology (Roche) on cDNA generated from the reverse transcription of purified RNA. After preamplification (95° C. for 2 min), the PCRs were amplified for 40 cycles (95° C. for 15 s and 60° C. for 60 s) in a sequence detection system (PE Prism 7000; Perkin-Elmer Applied Biosystems, USA). mRNA expression was normalized against GAPDH expression using the standard curve method.
as §4

[8] = system: CD3 expression; assay: FACS of CD3 expression on OVA-activated OT-1 T-cells; format: cell-based, mouse
Description: as §1

[9] = system: FasL expression; assay: FACS of FasL expression on OVA-activated OT-1 T-cells; format: cell-based, mouse
Description: as §3

[10] = system: EL4 tumor cells; assay: Intradermal EL4 / EL4-OVA tumor model in OT-1 Tg mice, tumor growth; format: in vivo, mouse; conditions: OVA peptide 2, 5 and 10 ug, 10 days, young mice 4-6 weeks (FIG. 9a)
[11] = system: PD-1 transcription; assay: qPCR of PD-1 transcription in cells from EL4-OVA tumor-bearing OT-1 Tg mice; format: in vivo, mouse; conditions: cells at day 12, mice 4-6 weeks (FIG. 9b)
Description: as §5, with “method. […]” for “method.”

[12] = system: Tbet transcription; assay: qPCR of Tbet transcription in cells from EL4-OVA tumor-bearing OT-1 Tg mice; format: in vivo, mouse; conditions: cells at day 12, mice 4-6 weeks (FIG. 9c)
Description: as §5, with “method. […]” for “method.”

[13] = system: PD-1 expression on T-cells; assay: FACS of PD-1 expression on T-cells from EL4-OVA tumor-bearing mice treated in vivo; design: species or system mouse; conditions: EL4-OVA model
[14] = system: FasL expression; assay: FACS of FasL expression on T-cells from EL4-OVA tumor-bearing mice treated in vivo; design: species or system mouse; conditions: negative control (FIG. 9d)
Description: Tumors were visible after 1 wk and grew progressively in an encapsulated fashion. Mice were young at 4-6 weeks.

[15] = system: Interferon-γ1 (IFN-γ1) expression; assay: FACS of IFN-γ1 expression on T-cells from EL4-OVA tumor-bearing mice treated in vivo; design: species or system mouse; conditions: EL4-OVA model (FIG. 12b,c)
[16] = system: CD69 expression; assay: FACS of CD69 expression on T-cells from EL4-OVA tumor-bearing mice treated in vivo; design: species or system mouse; conditions: EL4-OVA model (FIG. 12d)
[17] = system: CTLA-4 (CD152) expression; assay: FACS of CTLA-4 (CD152) expression on T-cells from EL4-OVA tumor-bearing mice treated in vivo; design: species or system mouse; conditions: EL4-OVA model (FIG. 12e)
[18] = system: panel of 24 other protein kinases; conditions: selectivity; cited from earlier work
[19] = system: EL4-OVA target cells; assay: Cytotoxicity assay: OT-1 CD8+ CTL killing of EL4-OVA target cells; conditions: over a range of target:effector ratios (FIG. 1e,f)
Description: Cytotoxicity was assayed using a Cytotox 96 nonradioactive kit (Promega) following the instructions provided and using established methods. In brief, purified T cells were plated in 96-well plates at the effector/target ratios shown using 10^4 EL4 (ova peptide-pulsed) target cells per well in a final volume of 200 μl per well using RPMI lacking phenol red. Target cells per well were in a final volume of 200 μl per well using RPMI lacking phenol red. Lactate dehydrogenase release was assayed after 4 h incubation at 37° C. by removal of 50 μl supernatant from each well and incubation with substrate provided for 30 min and the absorbance read at 490 nm using the Thermomax plate reader (Molecular Devices). Percentage cytotoxicity=((experimental effectorspontaneous−target spontaneous)/(targetmaximum−target spontaneous))×100.

## Cc1c[nH]c(-c2cnc(NCCNc3ccc(C#N)cn3)nc2-c2ccc(Cl)cc2Cl)n1.Cl [CHIR-99021, 6-(2-(4-(2,4-dichlorophenyl)-5-(4-methyl-1H-imidazol-2-yl)pyrimidin-2-ylamino)ethylamino)nicotinonitrile hydrochloride]
[1]
  inhibition of anti-CD3 induced increase in PD-1 expression (MFI): > 55%
[2]
  PD-1 expression induced in the MLR (FACS): inhibition of PD-1 expression

## Cn1sc(=O)n(Cc2ccccc2)c1=O [TDZD-8, 1,2,4-Thiadiazolidine-3,5-dione, 2-methyl-4-(phenylmethyl)]
[1]
  inhibition of anti-CD3 induced increase in PD-1 expression (MFI): > 50%
[3]
  fewer PD-1 positive cells: > 45%
[4]; drug in drinking water (FIG. 13e)
  percentage of T-cells expressing PD-1 after oral administration: reduce the percentage of T-cells expressing PD-1
[4]; drug in drinking water, ex vivo anti-CD3 48 hours (FIG. 13d)
  PD-1 expression on ex vivo cells after oral administration (FACS): lower expression of PD-1
[5]; 48 hours ex vivo culture (FIG. 13b,c)
  cell death / viability of cells in ex vivo culture after oral administration: no indication of cell death; also recorded: no obvious long-term effect on viability
[5]; oral, 2 mg/kg, spleen extracted at 60 hours
  spleen cell numbers, drug treated versus untreated mice: No difference on cell numbers

## Cn1cc(C2=C(c3ccc(Cl)cc3Cl)C(=O)NC2=O)c2ccccc21 [SB216763, 3-(2,4-dichlorophenyl)-4-(1-methyl-1H-indol-3-yl)-1H-pyrrole-2,5-dione]
[6]
  PD-1 surface expression (FACS profile): reduced PD-1 expression; also recorded: decreased the number of cells expressing PD-1
[7]
  Tbet transcription (qPCR): increased Tbet transcription
[8]
  CD3 expression (FACS profile): unaltered CD3 expression
[9]
  FasL expression (FACS profile): unaltered FasL expression
[10]
  tumor growth: prevented tumor growth at all concentrations of OVA peptide
[11]
  PD-1 transcription in vivo (qPCR): inhibition of PD-1 transcription at all doses of OVA peptide
[12]
  Tbet transcription in vivo (qPCR): increased Tbet transcription
[13]; mice 4-6 weeks (FIG. 9d)
  PD-1 expression on T-cells after in vivo administration (flow cytometry): PD-1 expression is reduced
[13]; tumor elimination (FIG. 12a)
  PD-1 expression on T-cells after in vivo administration (FACS): down-regulation of PD-1
[14]
  FasL expression after in vivo administration (flow cytometry): absence of an effect on FasL expression
[15]
  IFN-γ1 expression after in vivo administration (FACS): increase expression of IFN-γ1 on a greater number of cells
[16]
  CD69 expression after in vivo administration (FACS): minor increase in CD69 expression
[17]
  CTLA-4 expression after in vivo administration (FACS): minor increase
[18]
  inhibition of a panel of 24 other protein kinases: Neither compound significantly inhibited any member
[19]
  OT-1 CTL killing of EL4-OVA targets (CTL function): increase CTL function

## COc1ccc(CNC(=O)Nc2ncc([N+](=O)[O-])s2)cc1 [AR-A014418, N-[(4-Methoxyphenyl)methyl]-N′-(5-nitro-2-thiazolyl)urea]
[1]
  inhibition of anti-CD3 induced increase in PD-1 expression (MFI): > 45%
[2]
  PD-1 expression induced in the MLR (FACS): inhibition of PD-1 expression
